Measured values published in US10689383B2, “Optionally fused heterocyclyl-substituted derivatives of pyrimidine useful for the treatment of inflammatory, metabolic, oncologic and autoimmune diseases” (NUEVOLUTION A/S, priority 2014, dated 2020).

Key:
[1] = target: T1, yeast Gal4-DNA binding domain fused to the ligand binding domain of human RORγ (Homo sapiens, UniProt P51449); test: RORγ Reporter Assay (Gal4); assay type: cell-based; conditions: values given as lower bounds of ranges; for Gal4 activity range @ 1 μM (% inhibition): RORγ Reporter Assay (Gal4) at 1 μM; for Gal4 activity range @ 0.1 μM (% inhibition): RORγ Reporter Assay (Gal4) at 0.1 μM
T1 construct: host or cells: HEK293t
T1 sequence (P51449 269-508 limits assumed): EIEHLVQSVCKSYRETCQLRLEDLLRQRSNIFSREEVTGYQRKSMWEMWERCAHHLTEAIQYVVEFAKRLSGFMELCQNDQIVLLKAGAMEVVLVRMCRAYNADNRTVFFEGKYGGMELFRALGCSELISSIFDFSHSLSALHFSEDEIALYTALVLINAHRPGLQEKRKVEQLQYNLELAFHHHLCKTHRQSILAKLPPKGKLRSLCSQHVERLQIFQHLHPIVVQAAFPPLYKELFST
Procedure, shortened: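 HEK293t reporter cells expressing the hybrid, with Gal4-UAS-driven firefly luciferase, treated in triplicate with compound at 1,000 nM and 100 nM (0.1% DMSO) in medium with 10% charcoal-stripped FBS for 24 h at 37 °C. Luminescence read; percent reduction of RLU calculated relative to vehicle.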

[2] = target: T2, human RORγt (Ligand Binding Domain) (Homo sapiens, UniProt P51449); test: Fluorescence Polarization (FP) Assay; conditions: Fluorescence Polarization (FP) Assay; values given as upper bounds of activity ranges; read-out: FP activity range
T2 construct: purchased Crelux (Planegg, Germany) batch no PC5032-1
T2 sequence (P51449 269-508 limits assumed): T1 sequence (P51449 269-508 limits assumed)
Procedure, shortened: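 In vitro FP binding assay monitoring ligand binding within the ligand binding pocket. Probe is a TAMRA-labelled RORγt ligand (MW 910 g/mole); DMSO served as negative control.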

Gal4 activity range @ 1 μM (% inhibition) [1] [% inhibition] | IC50 [2] [nM] | Gal4 activity range @ 0.1 μM (% inhibition) [1] [% inhibition] | Compound
>0 | < 10000 | – | CN(C)C(=O)C1CCC(CNc2ncnc(N3CCCC3c3ccc(C(F)(F)F)cc3)c2F)O1 (stereo not drawn) [Example 110, 5-[[[5-fluoro-6-[2-[4-(trifluoromethyl)phenyl]pyrrolidin-1-yl]pyrimidin-4-yl]amino]methyl]-N,N-dimethyl-tetrahydrofuran-2-carboxamide]
>80 | < 500 | >50 | COC1(CNc2ncnc(N3CCCC3c3ccc(C(F)(F)F)cc3)c2F)CCOCC1 (stereo not drawn) [Example 111, 5-fluoro-N-[(4-methoxytetrahydropyran-4-yl)methyl]-6-[2-[4-(trifluoromethyl)phenyl]pyrrolidin-1-yl]pyrimidin-4-amine]
>80 | < 500 | >50 | COc1cc(CNc2ncnc(N3CCCC3c3ccc(C(F)(F)F)cc3)c2F)ccn1 (stereo not drawn) [Example 113, 5-fluoro-N-[(2-methoxy-4-pyridyl)methyl]-6-[2-[4-(trifluoromethyl)phenyl]pyrrolidin-1-yl]pyrimidin-4-amine]
>80 | < 1000 | >20 | COc1ccc(CNc2ncnc(N3CCCC3c3ccc(C(F)(F)F)cc3)c2F)cn1 (stereo not drawn) [Example 114, 5-fluoro-N-[(6-methoxy-3-pyridyl)methyl]-6-[2-[4-(trifluoromethyl)phenyl]pyrrolidin-1-yl]pyrimidin-4-amine]
>50 | < 1000 | >20 | COc1ccc(CN(C)c2ncnc(N3CCCC3c3ccc(C(F)(F)F)cc3)c2F)cn1 (stereo not drawn) [Example 116, 5-fluoro-N-[(6-methoxy-3-pyridyl)methyl]-N-methyl-6-[2-[4-(trifluoromethyl)phenyl]pyrrolidin-1-yl]pyrimidin-4-amine]
>20 | < 10000 | >0 | O=C(O)Cc1ccc(CNc2ncnc(N3CCC[C@H]3c3ccc(C(F)(F)F)cc3)c2F)cc1 [Example 118, 2-[4-[[[5-fluoro-6-[(2S)-2-[4-(trifluoromethyl)phenyl]pyrrolidin-1-yl]pyrimidin-4-yl]amino]methyl]phenyl]acetic acid]
>50 | < 2000 | >20 | Fc1c(NCc2ccc(C(F)(F)F)nc2)ncnc1N1CCCC1c1ccc(C(F)(F)F)cc1 (stereo not drawn) [Example 126, 5-fluoro-6-[2-[4-(trifluoromethyl)phenyl]pyrrolidin-1-yl]-N-[[6-(trifluoromethyl)-3-pyridyl]methyl]pyrimidin-4-amine]
– | < 500 | >50 | OCCc1ccc(CNc2ncnc(N3CCCC3c3ccc(C(F)(F)F)cc3)c2F)cc1 (stereo not drawn) [Example 128, 2-[4-[[[5-fluoro-6-[2-[4-(trifluoromethyl)phenyl]pyrrolidin-1-yl]pyrimidin-4-yl]amino]methyl]phenyl]ethanol]
– | < 500 | >50 | OC1(CNc2ncnc(N3CCCC3c3ccc(C(F)(F)F)cc3)c2F)CCOCC1 (stereo not drawn) [Example 129, 4-[[[5-fluoro-6-[2-[4-(trifluoromethyl)phenyl]pyrrolidin-1-yl]pyrimidin-4-yl]amino]methyl]tetrahydropyran-4-ol]
– | < 500 | >20 | Fc1c(NCc2ccncc2)ncnc1N1CCCC1c1ccc(C(F)(F)F)cc1 (stereo not drawn) [Example 140, 5-fluoro-N-(4-pyridylmethyl)-6-[2-[4-(trifluoromethyl)phenyl]pyrrolidin-1-yl]pyrimidin-4-amine]
– | < 1000 | >50 | O=C(O)CC1CCC(CNc2ncnc(N3CCCC3c3ccc(C(F)(F)F)cc3)c2F)CC1 (stereo not drawn) [Example 148, 2-[4-[[[5-fluoro-6-[2-[4-(trifluoromethyl)phenyl]pyrrolidin-1-yl]pyrimidin-4-yl]amino]methyl]cyclohexyl]acetic acid]
– | < 500 | >0 | CC1(CNc2ncnc(N3CCCC3c3ccc(C(F)(F)F)cc3)c2F)CCC1 (stereo not drawn) [Example 152, 5-fluoro-N-[(1-methylcyclobutyl)methyl]-6-[2-[4-(trifluoromethyl)phenyl]pyrrolidin-1-yl]pyrimidin-4-amine]
– | < 500 | >20 | Fc1c(NCC2CCSCC2)ncnc1N1CCC[C@@H]1c1ccc(C(F)(F)F)cc1 [Example 164, 5-fluoro-N-(tetrahydrothiopyran-4-ylmethyl)-6-[(2R)-2-[4-(trifluoromethyl)phenyl]pyrrolidin-1-yl]pyrimidin-4-amine]
– | < 500 | >0 | OC1(CNc2ncnc(N3CCC[C@@H]3c3ccc(C(F)(F)F)cc3)c2F)CCCCCC1 [Example 167, 1-[[[5-fluoro-6-[(2R)-2-[4-(trifluoromethyl)phenyl]pyrrolidin-1-yl]pyrimidin-4-yl]amino]methyl]cycloheptanol]

Second part, the compound before the results:

Compound | Gal4 activity range @ 1 μM (% inhibition) [1] [% inhibition] | IC50 [2] [nM] | Gal4 activity range @ 0.1 μM (% inhibition) [1] [% inhibition]
Cc1ccc(CNc2ncnc(N3CCCC3c3ccc(C(F)(F)F)cc3)c2F)o1 (stereo not drawn) [Example 107, 5-fluoro-N-[(5-methyl-2-furyl)methyl]-6-[2-[4-(trifluoromethyl)phenyl]pyrrolidin-1-yl]pyrimidin-4-amine] | >0 | < 10000 | –
CN1CC(CNc2ncnc(N3CCCC3c3ccc(C(F)(F)F)cc3)c2F)CC1=O (stereo not drawn) [Example 109, 4-[[[5-fluoro-6-[2-[4-(trifluoromethyl)phenyl]pyrrolidin-1-yl]pyrimidin-4-yl]amino]methyl]-1-methyl-pyrrolidin-2-one] | >20 | < 2000 | –
Fc1c(NCc2ccc(Cn3cncn3)cc2)ncnc1N1CCCC1c1ccc(C(F)(F)F)cc1 (stereo not drawn) [Example 115, 5-fluoro-N-[[4-(1,2,4-triazol-1-ylmethyl)phenyl]methyl]-6-[2-[4-(trifluoromethyl)phenyl]pyrrolidin-1-yl]pyrimidin-4-amine] | >80 | < 500 | >50
O=C(O)Cc1ccc(CNc2ncnc(N3CCOCC3c3ccc(C(F)(F)F)cc3)c2F)cc1 (stereo not drawn) [Example 119, 2-[4-[[[5-fluoro-6-[3-[4-(trifluoromethyl)phenyl]morpholin-4-yl]pyrimidin-4-yl]amino]methyl]phenyl]acetic acid] | >80 | < 1000 | >20
CC(C)CC(Nc1ncnc(N2CCCC2c2ccc(C(F)(F)F)cc2)c1F)c1nnn[nH]1 (stereo not drawn) [Example 123, 5-fluoro-N-[3-methyl-1-(1H-tetrazol-5-yl)butyl]-6-[2-[4-(trifluoromethyl)phenyl]pyrrolidin-1-yl]pyrimidin-4-amine] | >20 | < 10000 | >0
COc1ccnc(CNc2ncnc(N3CCCC3c3ccc(C(F)(F)F)cc3)c2F)c1 (stereo not drawn) [Example 131, 5-fluoro-N-[(4-methoxy-2-pyridyl)methyl]-6-[2-[4-(trifluoromethyl)phenyl]pyrrolidin-1-yl]pyrimidin-4-amine] | – | < 2000 | >20
CC1(CNc2ncnc(N3CCC[C@@H]3c3ccc(C(F)(F)F)cc3)c2F)CCOCC1 [Example 161, 5-fluoro-N-[(4-methyltetrahydropyran-4-yl)methyl]-6-[(2R)-2-[4-(trifluoromethyl)phenyl]pyrrolidin-1-yl]pyrimidin-4-amine] | – | < 500 | >20
OC1(CNc2ncnc(N3CCC[C@@H]3c3ccc(C(F)(F)F)cc3)c2F)CCSC1 (stereo partly drawn) [Example 165, 3-[[[5-fluoro-6-[(2R)-2-[4-(trifluoromethyl)phenyl]pyrrolidin-1-yl]pyrimidin-4-yl]amino]methyl]tetrahydrothiophen-3-ol] | – | < 500 | >50
COC1CCCCC1CNc1ncnc(N2CCC[C@@H]2c2ccc(C(F)(F)F)cc2)c1F (stereo partly drawn) [Example 168, 5-fluoro-N-[(2-methoxycyclohexyl)methyl]-6-[(2R)-2-[4-(trifluoromethyl)phenyl]pyrrolidin-1-yl]pyrimidin-4-amine] | – | < 500 | >50
OC1(CNc2ncnc(N3CCC[C@@H]3c3ccc(C(F)(F)F)cc3)c2F)CCSCC1 [Example 169, 4-[[[5-fluoro-6-[(2R)-2-[4-(trifluoromethyl)phenyl]pyrrolidin-1-yl]pyrimidin-4-yl]amino]methyl]tetrahydrothiopyran-4-o1] | – | < 500 | >0
